Experimental data as given in the NIST ThermoML archive (doi:10.1016/j.jct.2009.09.003).
Where “and” joins values, the source holds several entries; their conditions need not be identical. Equal values may be shown once.

Details: Liquid, Transpiration

CN1CCN(C)CC1 [1,4-dimethylpiperazine]
Details | vapor or sublimation pressure [kPa]
268.1 K | 0.2307
270.3 K | 0.2719
274.1 K | 0.3511
274.8 K | 0.3656
278.5 K | 0.486
280.1 K | 0.5177
283.6 K | 0.6602
286.1 K | 0.7611
288.5 K | 0.8272
291.1 K | 0.9973
293.6 K | 1.116
296.1 K | 1.359
298.5 K | 1.561
301.1 K | 1.834
303.4 K | 2.102
306.1 K | 2.518
308.5 K | 2.6
311.1 K | 3.202

NCCN1CCNCC1 [N-(β-aminoethyl)piperazine)]
Details | vapor or sublimation pressure
295.7 K | 0.0064 kPa
297.7 K | 0.0079 kPa
300.4 K | 0.0096 kPa
303.3 K | 0.0127 kPa and 0.0131 kPa
304.7 K | 0.0144 kPa
305.6 K | 0.015 kPa
308.2 K | 0.0193 kPa
310.2 K | 0.0227 kPa
312.6 K | 0.028 kPa
314.6 K | 0.0333 kPa
317.5 K | 0.0414 kPa
320.7 K | 0.0534 kPa
323.1 K | 0.0653 kPa
326.4 K | 0.0835 kPa
328.2 K | 0.0943 kPa
330.5 K | 0.1135 kPa
330.7 K | 0.1203 kPa
333.1 K | 0.1411 kPa
333.2 K | 0.134 kPa
335.2 K | 0.1628 kPa
338.1 K | 0.1943 kPa

CN1CCN(CCN)CC1 [1-(2-aminoethyl)-4-methyl-piperazine]
Details | vapor or sublimation pressure
297.8 K | 0.0246 kPa
298.8 K | 0.0265 kPa
302 K | 0.0341 kPa
302.7 K | 0.0368 kPa
304.6 K | 0.0433 kPa
307.2 K | 0.0548 kPa and 0.0538 kPa
310.5 K | 0.0691 kPa
311.6 K | 0.0765 kPa
313.2 K | 0.085 kPa
314.3 K | 0.0925 kPa
315.9 K | 0.1026 kPa
317.1 K | 0.1153 kPa
320.2 K | 0.1434 kPa
323.7 K | 0.1872 kPa
327.7 K | 0.2497 kPa
331.8 K | 0.3218 kPa

NCCNCCNCCN [1,2-ethanediamine, N,N'-bis(2-aminoethyl)-]
Details | vapor or sublimation pressure
338.2 K | 0.00866 kPa
340.7 K | 0.01059 kPa
343.5 K | 0.0135 kPa
346.3 K | 0.01645 kPa
347.2 K | 0.01792 kPa
348.2 K | 0.01944 kPa
349.4 K | 0.0209 kPa
350.1 K | 0.022 kPa
350.2 K | 0.02259 kPa
352.4 K | 0.02695 kPa
353.2 K | 0.02857 kPa
355.2 K | 0.03317 kPa
355.4 K | 0.03445 kPa
356.2 K | 0.03575 kPa
358.5 K | 0.04226 kPa
359.2 K | 0.04519 kPa
361.2 K | 0.05252 kPa
363.2 K | 0.05873 kPa
364.2 K | 0.0654 kPa
365.4 K | 0.06908 kPa
367.4 K | 0.07992 kPa
368.1 K | 0.08563 kPa and 0.08484 kPa
370.2 K | 0.09747 kPa
370.4 K | 0.09756 kPa
371 K | 0.1008 kPa
373.3 K | 0.1176 kPa
